Six compounds from ChEMBL document CHEMBL1201862, “PubChem BioAssay data set” (2004) can be followed below.

Molecules are shown by their SMILES.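 These data come from cells grown in 96-well plates and exposed to compound for 48 hours at five concentrations. GI50 = concentration required for 50% inhibition of growth.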 Active and inactive are the calls of the source. Cut-off read from the data, not from the text of the source: active = GI50 up to about 1.1 µM and inactive = higher.

Among the test systems are ACHN; HCC 2998; HCT-116; HCT-15; HT-29; IGROV-1; Malme-3M; RPMI-8226; SF-539; SK-MEL-28; SK-MEL-5; SNB-75; U-251; UACC-257; NCI-H522; RXF 393.
Holding throughout (assay): NCI-60 cell line screen, 48 h

For the compound `O=c1cc2ccccc2nn1Cc1ccccc1Cl`, the GI50 with ACHN is > 100 µM (inactive); in the test with HCC 2998 it was > 100 µM (inactive); in the test with HCT-116, > 100 µM (inactive); in the test with HCT-15, > 100 µM; in the test on HT-29, > 100 µM (inactive); with IGROV-1, > 100 µM (inactive). The GI50 was > 100 µM (inactive) with Malme-3M; 92.5 µM (inactive) with RPMI-8226; > 100 µM (inactive) in the test with SF-539; > 100 µM (inactive) in the test on SK-MEL-28; > 100 µM (inactive) in the test on SK-MEL-5; 25.3 µM (inactive) with SNB-75. In addition, the GI50 in the test with U-251 and in the test on UACC-257 was > 100 µM (inactive) in each case.

Consider `O=C(CC(=O)c1ccccc1)CC(O)(c1ccccc1)c1ccccc1`, for which the GI50 in the test with ACHN was 6.27 µM (inactive); with HCC 2998, 10.6 µM (inactive); in the test on HCT-116, 4.59 µM (inactive); with HCT-15, 4.89 µM; in the test on HT-29, 10.4 µM (inactive); in the test with Malme-3M, 11 µM (inactive). For the same compound, the GI50 was 3.12 µM (inactive) with NCI-H522; 4.05 µM (inactive) in the test on RPMI-8226; 13.1 µM (inactive) in the test with SK-MEL-28; 3.52 µM (inactive) with SK-MEL-5; 9.55 µM (inactive) in the test on SNB-75; 3.32 µM (inactive) in the test with U-251. Besides, the GI50 in the test with UACC-257 is 13.2 µM (inactive).

With `CCOc1ccc(C2=C(Cl)c3cc(OC)c(OC)cc3C2Cl)cc1` (stereo not drawn), the GI50 is 31.6 µM (inactive) with ACHN; 27.1 µM with HCT-15; 32.1 µM (inactive) in the test on HT-29; 72.4 µM (inactive) with IGROV-1; 33.8 µM (inactive) in the test on Malme-3M; 17.2 µM (inactive) with NCI-H522. The GI50 in the test with RPMI-8226 was 21.3 µM (inactive); in the test with SF-539, 29.8 µM (inactive); in the test on SK-MEL-28 it was 87.5 µM (inactive); in the test with SK-MEL-5, 18.3 µM (inactive); in the test on SNB-75, 44.1 µM (inactive); with U-251 it was 18.2 µM (inactive).

In the case of `c1ccc(N2CCN(CCN3CCc4c([nH]c5ccccc45)C3c3cccnc3)CC2)cc1` (stereo not drawn), the GI50 is > 100 µM (inactive) with ACHN; > 100 µM (inactive) in the test with HCC 2998; 46.8 µM (inactive) in the test on HCT-116; > 100 µM in the test on HCT-15; > 100 µM (inactive) in the test on HT-29; > 100 µM (inactive) in the test on IGROV-1. For the same compound, the GI50 in the test with NCI-H522 is > 100 µM (inactive); in the test with RPMI-8226, > 100 µM (inactive); in the test on SF-539, 20.5 µM (inactive); in the test on SK-MEL-28, > 100 µM (inactive); in the test on SK-MEL-5, > 100 µM (inactive); in the test on SNB-75 it was 3.07 µM (inactive). The GI50 with U-251 and with UACC-257 was > 100 µM (inactive) throughout.

As to `O=C(Cc1ccccc1)NN1C(=O)C(Cl)C1c1ccc(Cl)cc1` (stereo not drawn), the GI50 in the test with ACHN was > 100 µM (inactive); in the test with HCC 2998, > 100 µM (inactive); in the test on HCT-116, > 100 µM (inactive); with HCT-15, > 100 µM; in the test on HT-29, > 100 µM (inactive); in the test on IGROV-1, > 100 µM (inactive). The GI50 in the test with Malme-3M is > 100 µM (inactive); in the test with NCI-H522, > 100 µM (inactive); with RPMI-8226, 51.4 µM (inactive); with RXF 393, > 100 µM (inactive); in the test on SK-MEL-28, > 100 µM (inactive); in the test with SK-MEL-5, > 100 µM (inactive). Also, the values for the GI50 with SNB-75, in the test on U-251 and with UACC-257 were 84.5 µM (inactive), > 100 µM (inactive) and 86.3 µM (inactive), respectively.

For the compound `CP(=O)(CCSc1ccccc1)c1ccccc1` (stereo not drawn), the GI50 with ACHN was > 100 µM (inactive); in the test with HCC 2998, > 100 µM (inactive); with HCT-116, > 100 µM (inactive); in the test on HCT-15, > 100 µM; in the test on HT-29, > 100 µM (inactive); with IGROV-1 it was > 100 µM (inactive). For the same compound, the GI50 in the test on Malme-3M, with RPMI-8226, with RXF 393, in the test on SF-539, in the test with SK-MEL-28 and in the test on SK-MEL-5 was > 100 µM (inactive) each time. Moreover, the GI50 in the test with SNB-75, with U-251 and in the test on UACC-257 was > 100 µM (inactive) each time.
